Experimental data published in patent publication US4634692A, “Synthesis of 1α,25-dihydroxy-24R-fluorocholecalciferol and 1α,25-dihydroxy-24S-fluorocholecalciferol” (Hoffmann-La Roche Inc., priority 1984, dated 1987).
Values joined by “and” are separate entries in the source; they are usually repeats but may differ in a detail not shown here. Equal entries are not always repeated. “Also recorded” adds a separate entry of the source. Where two headings read alike, the source gives them in different places.

Legend:
[1] = Pharmacokinetics in dogs, plasma half-life after intravenous administration; details: dog, in vivo, 0.0003 mg/kg
Experimental: The plasma level profiles of 1α,25-dihydroxy-24R-fluorocholecalciferol and 1α,25-dihydroxycholecalciferol are compared in the dog after a single intraveneous dose. Each compound is studied in four dogs with a two-week "washout" period between compounds. The compounds are administered intravenously as solutions (2.5 mg/ml) in propylene glycol at a dose level of 0.3 μg/kg. At selected time points 5 ml of heparinized blood are collected, placed in ice and centrifuged in the cold. Plasma is separated and frozen immediately.
Plasma concentrations are determined by procedures routinely employed for the measurements of circulating levels of 1α,25-dihydroxycholecalciferol.

[2] = tested on: EHDP-Induced Mineralization Block; assay: Prevention of EHDP-induced mineralization block in rats (tibial epiphyseal plate width); assay type: in vivo, rat (Charles River CD male); details: 10 days; for Mean tibial epiphyseal plate width: with EHDP
Experimental: Charles River CD male rats are treated for 10 consecutive days. Rats are 21 days of age at the start of treatment. Ethane-1-hydroxy-1,1-diphosphonate (EHDP) is given subcutaneously on each treatment day at a dose of 3 mg/0.2 ml/rat in distilled water. Test compounds are administered orally on each treatment day in propylene glycol (0.2 ml/rat). Rats are autopsied on the day after the last treatment day and tibias are processed by a modified von Kossa procedure based upon silver impregnation of bone salts. Epiphyseal plate widths are measured with a micrometer ocular using standard microscopic magnification (35×). Activity is based upon dose-dependent narrowing of the widened epiphyseal plate induced by EHDP. Ten rats are used in each treatment group. Positive (EHDP alone) and negative (vehicles alone) control groups of ten rats each are included in each experiment.

[3] = tested on: vitamin D-deficient chicks; assay: Anti-rachitogenic activity in chicks (tibia ash weight); assay type: in vivo, chick (White Leghorn cockerels); details: for Mean tibia ash weight ± S.E.: 21 days oral dosing, 9-10 chicks per group, vehicle 120.9 ± 8.3
Experimental: One-day-old White Leghorn cockerels are placed on a vitamin D-deficient diet which contains 1% calcium and 0.7% phosphorous and are housed under ultraviolet-free lighting (General Electric F40G0 gold fluorescent lights). Compounds are dissolved in propylene glycol and administered orally in a volume of 0.2 ml for 21 consecutive days to chicks which are one to two days of age at the start of treatment. Controls are treated with vehicle alone. Compounds are prepared in amber flasks and the solutions are flushed with argon and refrigerated after each dosing period. Chicks are autopsied on the day after the last treatment day. Blood is collected for determination of serum calcium and phosphorus and tibia dry weight and ash weight are determined. Usually, ten chicks are used for each treatment group and for the control group. The results of the 1α,25-dihydroxy-24R-fluorocholecalciferol anti-rachitogenic activity assay are shown in Table I along with comparative data showing the anti-rachiotogenic activity of 24,24-difluoro 1α,25-dihydroxycholecalciferol.

[4] = tested on: intestinal calcium absorption; assay: Intestinal calcium absorption in vitamin D-deficient chicks (serum 45Ca); assay type: in vivo, chick (Leghorn cockerels)
Experimental: While Leghorn one-day-old cockerels are placed on a vitamin D-deficient diet and are housed under ultraviolet-free lighting for 21 days. Chicks are then used to determine the effects of test compounds on intestinal calcium absorption. A single oral dose of test compound dissolved in propylene glycol is administered. At various times after dosing, 2 uCi of ^45 Ca (chloride) is given orally, and serum radioactivity is measured 45 minutes after administration of the isotope. Ten chicks are used in each treatment and control group and vehicle-treated controls are included at each time period.

[5] = 2.5 picomoles/rat/day p.o., vehicles 447, EHDP alone 1502
[6] = 7.5 picomoles/rat/day p.o., vehicles 416, EHDP alone 1390
[7] = 25 picomoles/rat/day p.o., vehicles 435, EHDP alone 1684
[8] = 75 picomoles/rat/day p.o., vehicles 448, EHDP alone 1332
[9] = 250 picomoles/rat/day p.o., vehicles 428, EHDP alone 1385

half-life [1] [h]	SMILES	half-life ([1]; 0.3 mcg/kg, i.v., dogs, read-out: Plasma half-life (converted)) [h]	Mean tibial epiphyseal plate width [2, 5] [Micra]	Mean tibial epiphyseal plate width [2, 6] [Micra]	Mean tibial epiphyseal plate width [2, 7] [Micra]	Mean tibial epiphyseal plate width [2, 8] [Micra]	Mean tibial epiphyseal plate width [2, 9] [Micra]	Mean tibia ash weight ± S.E. ([3]; 3 ng/chick/day) [mg]	Mean tibia ash weight ± S.E. ([3]; 10 ng/chick/day) [mg]	Mean tibia ash weight ± S.E. ([3]; 30 ng/chick/day) [mg]	Mean tibial epiphyseal plate width, EHDP alone (positive control) ([2]; EHDP 3 mg/0.2 ml/rat s.c., control groups of the 2.5, 7.5, 25, 75, 250 pmol)	Anti-rachitogenic activity (in words) ([3]; oral, 21 consecutive days)	Serum 45Ca ([4]; 24 hr after single oral dose, vehicle 408 ± 30, *** statistically significant) [CPM/0.2 ML]	Serum 45Ca ([4]; 48 hr after single oral dose, vehicle 439 ± 30, not statistically significant) [CPM/0.2 ML]	Serum 45Ca ([4]; 72 hr after single oral dose, vehicle 398 ± 31, not statistically significant) [CPM/0.2 ML]	Duration of activity in stimulation of intestinal calcium absorption versus 1α,25-dihydroxycholecalciferol (in words) ([4]; single oral 100 nanogram dose)	Prevention of EHDP-induced mineralization block (in words) ([2]; oral, rats)
–	C=C1/C(=C\C=C2/CCC[C@]3(C)[C@@H]([C@H](C)CCCC(C)(C)O)CC[C@@H]23)C[C@@H](O)C[C@@H]1O [1α,25-dihydroxycholecalciferol]	3.6	1365	1240	1103	922	839	–	–	–	–	–	–	–	–	–	–
–	C=C1/C(=C\C=C2/CCC[C@]3(C)[C@@H]([C@H](C)CCC(F)(F)C(C)(C)O)CC[C@@H]23)C[C@@H](O)C[C@@H]1O [24,24-difluoro 1α,25-dihydroxycholecalciferol, reference compound]	–	–	–	–	–	–	192.2 ± 6.2	258.6 ± 10.0	229.8 ± 14.2	–	–	–	–	–	–	–
–	CC(O)(P(=O)(O)O)P(=O)(O)O [EHDP, Ethane-1-hydroxy-1,1-diphosphonate]	–	–	–	–	–	–	–	–	–	1502 Micra and 1390 Micra and 1684 Micra and 1332 Micra and 1385 Micra	–	–	–	–	–	–
14.4	C=C1/C(=C\C=C2/CCC[C@]3(C)[C@@H]([C@H](C)CC[C@@H](F)C(C)(C)O)CC[C@@H]23)C[C@@H](O)C[C@@H]1O [[1α,3β,5Z,7E,24R]-24-fluoro-9,10-secocholesta-5,7,10(19)-trien-1,3,25-triol]	–	1302	1031	1040	864	783	293.3 ± 4.8	330.4 ± 7.7	337.9 ± 10.6	–	has shown activity in the anti-rachitogenic test in chicks; also recorded: possesses potent anti-rachitogenic activity	793 ± 73	520 ± 38	372 ± 39	comparable to that of 1α,25-dihydroxycholecalciferol	has shown activity in the test for the prevention of EHDP-Induced Mineralization Block in rats; also recorded: narrows the widening of the epiphyseal plate induced by EHDP
